# In PubChem BioAssay (NCI):
#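 All cell lines were grown in 96-well plates and treated with compound for 48 hours. TGI: total growth inhibition.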
# What was measured:
# Assay in all cases: DTP human tumour cell line panel, 48 h
# [1] = test system: 786-0 renal
# [2] = test system: A498 renal
# [3] = test system: A549 NSCLC
# [4] = test system: ACHN renal
# [5] = test system: CAKI-1 renal
# [6] = test system: CCRF-CEM leukemia
# [7] = test system: COLO 205 colon
# [8] = test system: DLD-1 colon
# [9] = test system: DMS 114 small cell lung
# [10] = test system: DMS 273 small cell lung
# [11] = test system: EKVX NSCLC
# [12] = test system: HCC-2998 colon
# [13] = test system: HCT-116 colon
# [14] = test system: HCT-15 colon
# [15] = test system: HL-60(TB) leukemia
# [16] = test system: HOP-18 NSCLC
# [17] = test system: HOP-62 NSCLC
# [18] = test system: HOP-92 NSCLC
# [19] = test system: HT29 colon
# [20] = test system: IGROV1 ovarian
# [21] = test system: K-562 leukemia
# [22] = test system: KM12 colon
# [23] = test system: KM20L2 colon
# [24] = test system: LOX IMVI melanoma
# [25] = test system: LXFL 529 NSCLC
# [26] = test system: M14 melanoma
# [27] = test system: M19-MEL melanoma
# [28] = test system: MALME-3M melanoma
# [29] = test system: MOLT-4 leukemia
# [30] = test system: NCI-H226 lung
# [31] = test system: NCI-H23 lung
# [32] = test system: NCI-H460 lung
# [33] = test system: NCI-H522 lung
# [34] = test system: OVCAR-3 ovarian
# [35] = test system: OVCAR-4 ovarian
# [36] = test system: OVCAR-5 ovarian
# [37] = test system: OVCAR-8 ovarian
# [38] = test system: RPMI-8226 leukemia
# [39] = test system: RXF 393 renal
# [40] = test system: RXF-631 renal
# [41] = test system: SF-268 CNS
# [42] = test system: SF-295 CNS
# [43] = test system: SF-539 CNS
# [44] = test system: SK-MEL-2 melanoma
# [45] = test system: SK-MEL-28 melanoma
# [46] = test system: SK-MEL-5 melanoma
# [47] = test system: SK-OV-3 ovarian
# [48] = test system: SN12C renal
# [49] = test system: SNB-19 CNS
# [50] = test system: SNB-75 CNS
# [51] = test system: SNB-78 CNS
# [52] = test system: SR leukemia
# [53] = test system: SW-620 colon
# [54] = test system: TK-10 renal
# [55] = test system: U251 CNS
# [56] = test system: UACC-257 melanoma
# [57] = test system: UACC-62 melanoma
# [58] = test system: UO-31 renal
# [59] = test system: XF 498 CNS
structure (smiles),measurement,setting,value
CCCCCCCCCCCCOC(=N)N1CCOCC1,TGI,[1],28.4 µM
same,TGI,[2],> 52.3 µM
same,TGI,[3],30.4 µM
same,TGI,[4],27.7 µM
same,TGI,[5],17.3 µM
same,TGI,[6],9.44 µM
same,TGI,[7],3.45 µM
same,TGI,[8],12.7 µM
same,TGI,[9],19.7 µM
same,TGI,[10],25.1 µM
same,TGI,[11],26.4 µM
same,TGI,[12],23.8 µM
same,TGI,[13],22.6 µM
same,TGI,[14],16.3 µM
same,TGI,[15],3.26 µM
same,TGI,[16],16.3 µM
same,TGI,[17],33.3 µM
same,TGI,[18],13.8 µM
same,TGI,[19],4.11 µM
same,TGI,[20],27.7 µM
same,TGI,[21],7.47 µM
same,TGI,[22],19.3 µM
same,TGI,[23],13.4 µM
same,TGI,[24],34.4 µM
same,TGI,[25],15.1 µM
same,TGI,[26],14.1 µM
same,TGI,[27],17.7 µM
same,TGI,[28],34.5 µM
same,TGI,[29],6.89 µM
same,TGI,[30],37.2 µM
same,TGI,[31],27.4 µM
same,TGI,[32],30.2 µM
same,TGI,[33],30.4 µM
same,TGI,[34],30.3 µM
same,TGI,[35],21.2 µM
same,TGI,[36],28.5 µM
same,TGI,[37],33.5 µM
same,TGI,[38],5.15 µM
same,TGI,[39],25.9 µM
same,TGI,[40],22.6 µM
same,TGI,[41],30.4 µM
same,TGI,[42],31.7 µM
same,TGI,[43],19.1 µM
same,TGI,[44],23.9 µM
same,TGI,[45],25.3 µM
same,TGI,[46],23.4 µM
same,TGI,[47],34.1 µM
same,TGI,[48],> 52.3 µM
same,TGI,[49],35.5 µM
same,TGI,[50],29.9 µM
same,TGI,[51],27.8 µM
same,TGI,[52],4.53 µM
same,TGI,[53],16.6 µM
same,TGI,[54],31.6 µM
same,TGI,[55],21.9 µM
same,TGI,[56],23.9 µM
same,TGI,[57],24.7 µM
same,TGI,[58],26.8 µM
same,TGI,[59],29.7 µM
O=P(c1ccccc1)(c1ccccc1)C1CC=C2CCCCCC2C1 (configuration not stated),TGI,[1],51 µM
same,TGI,[2],97.7 µM
same,TGI,[3],> 10 µM
same,TGI,[5],69.5 µM
same,TGI,[6],61.5 µM
same,TGI,[7],56.4 µM
same,TGI,[9],68.2 µM
same,TGI,[10],64.5 µM
same,TGI,[11],> 100 µM
same,TGI,[13],40.3 µM
same,TGI,[14],> 100 µM
same,TGI,[15],58.9 µM
same,TGI,[16],44.2 µM
same,TGI,[18],39.9 µM
same,TGI,[19],> 100 µM
same,TGI,[20],> 100 µM
same,TGI,[21],76.9 µM
same,TGI,[22],> 100 µM
same,TGI,[23],> 10 µM
same,TGI,[24],65 µM
same,TGI,[25],46.2 µM
same,TGI,[26],40.9 µM
same,TGI,[27],> 100 µM
same,TGI,[28],> 100 µM
same,TGI,[29],45.3 µM
same,TGI,[30],81.1 µM
same,TGI,[31],> 100 µM
same,TGI,[32],> 100 µM
same,TGI,[33],41 µM
same,TGI,[34],50 µM
same,TGI,[35],67.4 µM
same,TGI,[36],62.2 µM
same,TGI,[37],99.2 µM
same,TGI,[38],42.7 µM
same,TGI,[39],72.6 µM
same,TGI,[40],85.4 µM
same,TGI,[41],66 µM
same,TGI,[42],> 100 µM
same,TGI,[43],> 10 µM
same,TGI,[44],81.6 µM
same,TGI,[45],> 10 µM
same,TGI,[46],46.1 µM
same,TGI,[47],85.9 µM
same,TGI,[48],> 100 µM
same,TGI,[49],81.6 µM
same,TGI,[50],62.7 µM
same,TGI,[51],> 100 µM
same,TGI,[53],> 10 µM
same,TGI,[54],> 100 µM
same,TGI,[55],> 100 µM
same,TGI,[56],68.5 µM
same,TGI,[57],69.6 µM
same,TGI,[58],52.7 µM
same,TGI,[59],91.6 µM
C=CC(C)(C)[C@@]12CC3C(=O)N[C@@H](Cc4ccccc4)C(=O)N3[C@@H]1N(C(C)=O)c1ccccc12 (some centres not stated),TGI,[1],> 100 µM
same,TGI,[2],> 100 µM
same,TGI,[3],> 100 µM
same,TGI,[4],> 100 µM
same,TGI,[6],> 100 µM
same,TGI,[7],> 100 µM
same,TGI,[8],> 100 µM
same,TGI,[9],> 100 µM
same,TGI,[10],> 100 µM
same,TGI,[11],> 100 µM
same,TGI,[13],> 100 µM
same,TGI,[14],> 100 µM
same,TGI,[15],62.1 µM
same,TGI,[16],> 100 µM
same,TGI,[17],> 100 µM
same,TGI,[18],91.2 µM
same,TGI,[19],> 100 µM
same,TGI,[20],> 100 µM
same,TGI,[21],> 100 µM
same,TGI,[22],> 100 µM
same,TGI,[23],> 100 µM
same,TGI,[24],> 100 µM
same,TGI,[25],> 100 µM
same,TGI,[26],> 100 µM
same,TGI,[27],> 100 µM
same,TGI,[28],> 100 µM
same,TGI,[29],71.7 µM
same,TGI,[30],> 100 µM
same,TGI,[31],> 100 µM
same,TGI,[32],> 100 µM
same,TGI,[34],> 100 µM
same,TGI,[35],97.5 µM
same,TGI,[36],> 100 µM
same,TGI,[37],> 100 µM
same,TGI,[38],> 100 µM
same,TGI,[40],> 100 µM
same,TGI,[42],> 100 µM
same,TGI,[43],> 100 µM
same,TGI,[44],> 100 µM
same,TGI,[45],> 100 µM
same,TGI,[46],> 100 µM
same,TGI,[47],> 100 µM
same,TGI,[48],> 100 µM
same,TGI,[49],> 100 µM
same,TGI,[50],> 100 µM
same,TGI,[51],> 100 µM
same,TGI,[52],> 100 µM
same,TGI,[53],> 100 µM
same,TGI,[54],> 100 µM
same,TGI,[55],> 100 µM
same,TGI,[56],> 100 µM
same,TGI,[57],> 100 µM
same,TGI,[58],> 100 µM
same,TGI,[59],> 100 µM
